From ChEMBL document CHEMBL1201862, “PubChem BioAssay data set” (2004)
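Step 1: Grow cells in 96-well plates. Step 2: Expose to compound for 48 hours at 5 concentrations. Step 3: Interpolate endpoints linearly; if unreached, use highest concentration. The concentration for 50% growth inhibition is given as GI50.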 Active and inactive are the calls of the source. Cut-off read from the data, not from the text of the source: active = GI50 up to about 1.1 µM and inactive = higher.

Experiments:
Assay in all cases: NCI tumour cell line growth inhibition, 48 h
EKVX = system: EKVX
BT-549 = system: BT-549
Malme-3M = system: Malme-3M
UACC-257 = system: UACC-257
SF-268 = system: SF-268
HOP-62 = system: HOP-62
NCI-H23 = system: NCI-H23
COLO 205 = system: COLO 205
HT-29 = system: HT-29
TK-10 = system: TK-10
NCI/ADR-RES = system: NCI/ADR-RES
SK-MEL-5 = system: SK-MEL-5
OVCAR-5 = system: OVCAR-5
ACHN = system: ACHN
IGROV-1 = system: IGROV-1
CAKI-1 = system: CAKI-1
DU-145 = system: DU-145
NCI-H522 = system: NCI-H522
Hs-578T = system: Hs-578T
RXF 393 = system: RXF 393
M14 = system: M14
K562 = system: K562
SR = system: SR
HCC 2998 = system: HCC 2998
SK-MEL-2 = system: SK-MEL-2
HCT-116 = system: HCT-116
NCI-H226 = system: NCI-H226
HL-60 = system: HL-60
OVCAR-3 = system: OVCAR-3
KM12 = system: KM12
MDA-N = system: MDA-N
T47D = system: T47D
A549 = system: A549
NCI-H460 = system: NCI-H460
MDA-MB-231 = system: MDA-MB-231
OVCAR-4 = system: OVCAR-4
SF-539 = system: SF-539
SW-620 = system: SW-620
PC-3 = system: PC-3
MDA-MB-435 = system: MDA-MB-435
RPMI-8226 = system: RPMI-8226
CCRF-CEM = system: CCRF-CEM
SK-OV-3 = system: SK-OV-3
HCT-15 = system: HCT-15
SN12C = system: SN12C
MOLT-4 = system: MOLT-4
SF-295 = system: SF-295
U-251 = system: U-251
OVCAR-8 = system: OVCAR-8
UACC-62 = system: UACC-62
SNB-19 = system: SNB-19
UO-31 = system: UO-31
SK-MEL-28 = system: SK-MEL-28
A498 = system: A498
MCF7 = system: MCF7
786-0 = system: 786-0
LOX IMVI = system: LOX IMVI
HOP-92 = system: HOP-92
SNB-75 = system: SNB-75

CN(C)c1ccc(C(c2ccc(N(C)C)cc2)c2ccc([N+](=O)[O-])cc2)cc1
GI50 (EKVX): > 100 µM (inactive) | GI50 (BT-549): > 100 µM (inactive) | GI50 (Malme-3M): > 100 µM (inactive) | GI50 (UACC-257): > 100 µM (inactive) | GI50 (SF-268): > 100 µM (inactive) | GI50 (HOP-62): > 100 µM (inactive) | GI50 (NCI-H23): > 100 µM (inactive) | GI50 (COLO 205): > 100 µM (inactive) | GI50 (HT-29): > 100 µM (inactive) | GI50 (TK-10): > 100 µM (inactive) | GI50 (NCI/ADR-RES): > 100 µM (inactive) | GI50 (SK-MEL-5): > 100 µM (inactive) | GI50 (OVCAR-5): > 100 µM (inactive) | GI50 (ACHN): > 100 µM (inactive) | GI50 (IGROV-1): > 100 µM (inactive) | GI50 (CAKI-1): > 100 µM (inactive) | GI50 (DU-145): > 100 µM (inactive) | GI50 (NCI-H522): > 100 µM (inactive) | GI50 (Hs-578T): > 100 µM (inactive) | GI50 (RXF 393): > 100 µM (inactive) | GI50 (M14): > 100 µM (inactive) | GI50 (K562): > 100 µM (inactive) | GI50 (SR): 90.6 µM (inactive) | GI50 (HCC 2998): > 100 µM (inactive) | GI50 (SK-MEL-2): > 100 µM (inactive) | GI50 (HCT-116): > 100 µM (inactive) | GI50 (NCI-H226): > 100 µM (inactive) | GI50 (HL-60): 23.9 µM (inactive) | GI50 (OVCAR-3): > 100 µM (inactive) | GI50 (KM12): > 100 µM (inactive) | GI50 (MDA-N): > 100 µM (inactive) | GI50 (T47D): > 100 µM (inactive) | GI50 (A549): > 100 µM (inactive) | GI50 (NCI-H460): > 100 µM (inactive) | GI50 (MDA-MB-231): > 100 µM (inactive) | GI50 (OVCAR-4): > 100 µM (inactive) | GI50 (SF-539): > 100 µM (inactive) | GI50 (SW-620): > 100 µM (inactive) | GI50 (PC-3): > 100 µM (inactive) | GI50 (MDA-MB-435): > 100 µM (inactive) | GI50 (RPMI-8226): 15.1 µM (inactive) | GI50 (CCRF-CEM): > 100 µM (inactive) | GI50 (SK-OV-3): > 100 µM (inactive) | GI50 (HCT-15): > 100 µM | GI50 (SN12C): > 100 µM (inactive) | GI50 (MOLT-4): > 100 µM (inactive) | GI50 (SF-295): > 100 µM (inactive) | GI50 (U-251): > 100 µM (inactive) | GI50 (OVCAR-8): > 100 µM (inactive) | GI50 (UACC-62): > 100 µM (inactive) | GI50 (SNB-19): > 100 µM (inactive) | GI50 (UO-31): > 100 µM (inactive) | GI50 (SK-MEL-28): > 100 µM (inactive) | GI50 (A498): > 100 µM (inactive) | GI50 (MCF7): > 100 µM (inactive) | GI50 (786-0): > 100 µM (inactive) | GI50 (LOX IMVI): > 100 µM (inactive) | GI50 (HOP-92): > 100 µM (inactive)

Oc1c(Br)ccc2cccnc12
GI50 (EKVX): 3.27 µM (inactive) | GI50 (BT-549): 7.48 µM (inactive) | GI50 (Malme-3M): 3.46 µM (inactive) | GI50 (UACC-257): 1.36 µM (inactive) | GI50 (SF-268): 0.646 µM (active) | GI50 (HOP-62): 12.4 µM (inactive) | GI50 (NCI-H23): 1.15 µM (inactive) | GI50 (COLO 205): 3.04 µM (inactive) | GI50 (HT-29): 5.3 µM (inactive) | GI50 (TK-10): 5.04 µM (inactive) | GI50 (NCI/ADR-RES): 1 µM (active) | GI50 (SK-MEL-5): 2.38 µM (inactive) | GI50 (OVCAR-5): 4.32 µM (inactive) | GI50 (ACHN): 3.13 µM (inactive) | GI50 (IGROV-1): 0.938 µM (active) | GI50 (CAKI-1): 5.94 µM (inactive) | GI50 (DU-145): 5.4 µM (inactive) | GI50 (NCI-H522): 0.959 µM (active) | GI50 (Hs-578T): 3.21 µM (inactive) | GI50 (RXF 393): 2.88 µM (inactive) | GI50 (K562): 1.06 µM (active) | GI50 (SR): 0.944 µM (active) | GI50 (HCC 2998): 15.1 µM (inactive) | GI50 (SK-MEL-2): 11.2 µM (inactive) | GI50 (HCT-116): 2.05 µM (inactive) | GI50 (NCI-H226): 5.19 µM (inactive) | GI50 (HL-60): 0.326 µM (active) | GI50 (OVCAR-3): 1.32 µM (inactive) | GI50 (KM12): 4.07 µM (inactive) | GI50 (MDA-N): > 19.8 µM (inactive) | GI50 (T47D): 1.51 µM (inactive) | GI50 (A549): 3.14 µM (inactive) | GI50 (NCI-H460): 1.6 µM (inactive) | GI50 (MDA-MB-231): 1.87 µM (inactive) | GI50 (OVCAR-4): 2.1 µM (inactive) | GI50 (SW-620): 4.81 µM (inactive) | GI50 (PC-3): 3.33 µM (inactive) | GI50 (MDA-MB-435): 7.5 µM (inactive) | GI50 (RPMI-8226): 2.79 µM (inactive) | GI50 (CCRF-CEM): 0.521 µM (active) | GI50 (SK-OV-3): 4.21 µM (inactive) | GI50 (HCT-15): 0.948 µM | GI50 (SN12C): 4.73 µM (inactive) | GI50 (MOLT-4): 2.02 µM (inactive) | GI50 (SF-295): 0.834 µM (active) | GI50 (SNB-75): 10.4 µM (inactive) | GI50 (U-251): 2.4 µM (inactive) | GI50 (OVCAR-8): 2.25 µM (inactive) | GI50 (UACC-62): 1.52 µM (inactive) | GI50 (SNB-19): 5.06 µM (inactive) | GI50 (UO-31): 1.64 µM (inactive) | GI50 (SK-MEL-28): 20.5 µM (inactive) | GI50 (A498): 8.81 µM (inactive) | GI50 (MCF7): 0.443 µM (active) | GI50 (786-0): 3.91 µM (inactive) | GI50 (LOX IMVI): 0.895 µM (active) | GI50 (HOP-92): 4.09 µM (inactive)

O/N=C/C1c2ccccc2-c2ccccc21
GI50 (EKVX): 13.6 µM (inactive) | GI50 (BT-549): 16.9 µM (inactive) | GI50 (Malme-3M): 15.2 µM (inactive) | GI50 (UACC-257): 17.5 µM (inactive) | GI50 (SF-268): 15.3 µM (inactive) | GI50 (HOP-62): 17.9 µM (inactive) | GI50 (NCI-H23): 17.9 µM (inactive) | GI50 (COLO 205): 16.6 µM (inactive) | GI50 (HT-29): 14.8 µM (inactive) | GI50 (TK-10): 18.9 µM (inactive) | GI50 (NCI/ADR-RES): 16.8 µM (inactive) | GI50 (SK-MEL-5): 12.5 µM (inactive) | GI50 (ACHN): 16.4 µM (inactive) | GI50 (CAKI-1): 14 µM (inactive) | GI50 (DU-145): 20.8 µM (inactive) | GI50 (NCI-H522): 16.9 µM (inactive) | GI50 (Hs-578T): 18.7 µM (inactive) | GI50 (RXF 393): 19.5 µM (inactive) | GI50 (M14): 16.9 µM (inactive) | GI50 (K562): 29.9 µM (inactive) | GI50 (SR): 23.2 µM (inactive) | GI50 (HCC 2998): 15.9 µM (inactive) | GI50 (SK-MEL-2): 17.1 µM (inactive) | GI50 (HCT-116): 16.3 µM (inactive) | GI50 (NCI-H226): 15 µM (inactive) | GI50 (HL-60): 31.3 µM (inactive) | GI50 (OVCAR-3): 16.1 µM (inactive) | GI50 (KM12): 17.4 µM (inactive) | GI50 (MDA-N): 14.2 µM (inactive) | GI50 (T47D): 19.3 µM (inactive) | GI50 (A549): 19.2 µM (inactive) | GI50 (NCI-H460): 17.3 µM (inactive) | GI50 (MDA-MB-231): 14.6 µM (inactive) | GI50 (SF-539): 16.2 µM (inactive) | GI50 (SW-620): 16.6 µM (inactive) | GI50 (PC-3): 17.2 µM (inactive) | GI50 (MDA-MB-435): 15.8 µM (inactive) | GI50 (RPMI-8226): 21.5 µM (inactive) | GI50 (CCRF-CEM): 19.5 µM (inactive) | GI50 (SK-OV-3): 14.4 µM (inactive) | GI50 (HCT-15): 19.5 µM | GI50 (SN12C): 16.4 µM (inactive) | GI50 (MOLT-4): 24 µM (inactive) | GI50 (SF-295): 22.5 µM (inactive) | GI50 (U-251): 19.4 µM (inactive) | GI50 (OVCAR-8): 19.6 µM (inactive) | GI50 (UACC-62): 15 µM (inactive) | GI50 (SNB-19): 18.4 µM (inactive) | GI50 (UO-31): 15.1 µM (inactive) | GI50 (SK-MEL-28): 15.7 µM (inactive) | GI50 (A498): 17.5 µM (inactive) | GI50 (MCF7): 16 µM (inactive) | GI50 (786-0): 3.7 µM (inactive) | GI50 (LOX IMVI): 23 µM (inactive) | GI50 (HOP-92): 12.8 µM (inactive)
